Assay results from patent publication US10913788B2, “Pharmaceutical composition for preventing or treating dry eyes” (EYEBIO KOREA, priority 2015, dated 2021).

Experiments:
Assay type in all cases: in vivo
[1] = system: conjunctival goblet cells; experiment: Distribution of conjunctival goblet cells (PAS stain) in dry eye mice; conditions: instillation after removal of desiccation stress, p<0.05; for conjunctival goblet cells: desiccation stress 7.43±1.52
Experimental: (§1) NOD.B10.H2^b mice were purchased from Jackson Laboratory (Bar Harbor, Me., USA). Experiments on animals were performed according to the guidelines for animal experiments of Inje University College of Medicine (No.; 2014-029) and the ARVO statement for the use of animals in ophthalmic and vision research. 12-to-16-week-old NOD.B10.H2^b mice underwent desiccation stress as being exposed to an air draft from a fan at an ambient humidity of about 40% to 50% for 18 hours per day, and then, were subjected to subcutaneous injection of 0.5 mg/0.2 mL of muscarinic receptor blockers. Also, the mice were injected with scopolamine hydrobromide (Sigma-Aldrich, St. Louis, Mo.) alternatively on hindquarters 4 times per day (9 AM, 12 PM, 3 PM, and 6 PM) for 10 days. During these experiments, behaviors and food and water intakes of the mice were not restricted. 10 days later, the mice were euthanized.
(§2) 10 days after the mice underwent desiccation stress, the scopolamine injection was halted, and then, the mice newly had environments with normal humidity and temperature. After the desiccation stress was removed, the mice were divided into a peptide I group or a peptide II group, wherein 10 mg/ml of peptide I or 10 mg/ml of peptide II was dissolved in PBS and 5 μL of PBS was instilled into eyeballs of the mice 5 times per day for 10 days. In addition, 5 μL of PBS or 5 μL of 0.1% HA were instilled into eyeballs of the mice in a control group, i.e., a PBS group or a hyaluni (HA) group, 5 times a day for 10 days. In each group, both eyes of each of 5 mice were used to conduct the experiments in a repetitive manner.
The eyes and adnexa of the mice in the control groups (i.e., the PBS group and the HA group) and the experimental groups (i.e., the peptide I group and the peptide II group) were surgically excised, fixed in 10% formalin, and embedded in paraffin and an OCT compound.
6 μm sections of the tissue samples were stained with haematoxylin and eosin (H&E) and periodic acid-Schiff (PAS) reagent.
5 animals in each group were subjected to the staining as described above, and then, were examined and photographed with a virtual microscope (NanoZoomer 2.0 RS, Hamamatsu, Japan).
The distribution of the conjunctival goblet cells in the dry eye mice were observed following peptide I, peptide II, and HA instillation.

[2] = system: TNF-α, ICAM-1, VCAM-1, MMP-2, and MMP-9; experiment: Immunohistochemical analysis of inflammatory markers in conjunctiva of dry eye mice; conditions: instillation for 10 days after removal of desiccation stress
Experimental: as §1
(§3) 10 days after the mice underwent desiccation stress, the scopolamine injection was halted, and then, the mice newly had environments with normal humidity and temperature. After the desiccation stress was removed, the mice were divided into a peptide I group or a peptide II group, wherein 10 mg/ml of peptide I or 10 mg/ml of peptide II was dissolved in PBS and 5 μL of PBS was instilled into eyeballs of the mice 5 times per day for 10 days. […]

corneal epithelial cells = experiment: Detachment of corneal epithelial cells (H&E stain) in dry eye mice; conditions: instillation for 10 days after removal of desiccation stress
Experimental: as §1, §3

NOD.B10.H2^b mice = experiment: Tear production measured with phenol red-impregnated cotton threads in dry eye mice after removal of desiccation stress; conditions: for increased tear production compared to the control group (PBS group): 10 mg/ml in PBS, 5 μL instilled into eyeballs 5 times per day, up to 10 days after removal of desiccation stress, p<0.05; for tear production / tear volume, result in words: eye instillation 5 times per day for 10 days after removal of desiccation stress, 0.1% HA
Experimental: as §1, §2
Extents of tear production were measured with phenol red-impregnated cotton threads (Zone-Quick; Oasis, Glendora, Calif.), as previously described (Villareal A L, Farley W, Pflugfelder S C. Effect of topical ophthalmic epinastine and olopatadine on tear volume in mice. Eye Contact Lens. 2006; 32(6):272-276). The threads were held medical tweezers and placed in the lateral canthus for 20 seconds. The tear volumes were expressed as millimeter (mm) of wet thread that had been turned red by the tears, as measured under a microscope (SZX7; Olympus corp, Tokyo, Japan).
The tear fluid uptakes measured in millimeters were compared to a standard curve that was prepared from cotton threads with known uptake volumes of a stock basic solution ([…] of 0.9% saline and 5 mL of 5 N NaOH) over 20 seconds that were within the range that would be expected for mouse tears.

Row | Substance | conjunctival goblet cells [1] | increase of conjunctival goblet cells that were decreased by desiccation stress [1] | expression of inflammatory markers (TNF-α, ICAM-1, VCAM-1, MMP-2, MMP-9) in the conjunctiva, result in words [2] | decrease of detachment of corneal epithelial cells compared to the control groups (corneal epithelial cells) | increased tear production compared to the control group (PBS group) (NOD.B10.H2^b mice) | tear production / tear volume, result in words (NOD.B10.H2^b mice) | number of detached corneal epithelial cells (corneal epithelial cells; DS 10D 2.29±0.61, PBS 1.43±0.34)
1 | GQDGLAGPK [peptide II, collagen type II α1 based peptide …] | 12.1 ± 1.11 cells/0.1 mm^2 | about 1.63 fold | significantly decreased | about 4 fold | about 2.52 fold | recovering the tear volumes up to normal tear volumes | –
2 | GDRGD [peptide I, collagen type I α1 based peptide GDRGD] | 13.3 ± 2.41 cells/0.1 mm^2 | about 1.8 fold | significantly decreased | – | about 2.52 fold | recovering the tear volumes up to normal tear volumes | about 0.19±0.14 /0.1 mm^2
